Source: US8420696B2, “Use of low-dose ladostigil for neuroprotection” (priority 2005, dated 2013)
“And” between values parts separate entries of the source, which are not always exact repeats. Identical values can stand only once.

Columns and labels:
Type in all cases: in vivo, Sprague-Dawley rats
[1] = test system: nitrotyrosine immunoreactivity in astrocytes; assay: Example 1: nitrotyrosine immunoreactivity in hippocampal CA1 astrocytes one week after icv STZ; conditions: for Increase in nitrotyrosine immunoreactivity in astrocytes in three areas of the CA1 region of the hippocampus: ladostigil 1.0 mg/kg daily oral, one week before to one week after icv STZ
Protocol: The study was performed on male Sprague-Dawley rats (Harlan, Jerusalem) weighing 320-340 g, aged 4 months, according to the guidelines of the University Committee for Institutional Animal Care and based on those of the National Institutes of Health, USA. The rats were housed for one week prior to surgery in the Animal House at an ambient temperature of 21±1° C. and a 12 hr diurnal light cycle (lights on at 0700 hr).
Male Sprague-Dawley rats (30) weighing 320-340 g, were anaesthetized by an intraperitoneal (i.p.) injection of Equithesin 0.3 ml/kg. STZ (0.5 mg) in 2 μl artificial cerebrospinal fluid (CSF) was injected into each lateral ventricle of 20 rats. The stereotaxic co-ordinates for icv injection were: 0.9 mm posterior, 1.8 mm lateral and 3.8 mm ventral from the bregma level. Control rats (10) received a bilateral injection of 2 μl artificial CSF. Half of the STZ-injected rats were given ladostigil (1 mg/kg) orally in a volume of (1 ml/kg) one week before, and for one week after icv STZ. The remainder, received 1 ml/kg water. The rats were anaesthetized with sodium pentobarbitone, perfused transcardially and the brains processed for immunocytochemistry as described below.
The brains were sectioned in a cryostat in 30 μm thick slices and stained immunochemically with the following markers: Nitrotyrosine, a marker of nitrative/oxidative stress, was stained with rabbit anti-nitrotyrosine from Upstate (Lake Placid, N.Y., USA), diluted 1:100. Glial fibrillary acidic protein (GFAP), a marker of astrocyte activation, was stained with mouse antibody, clone GA-5 from Sigma (Rehovot, Israel), diluted 1:500. […]. For rabbit antibodies, the secondary donkey anti-rabbit conjugated with horseradish peroxidase from Chemicon (Temecula, Calif., USA), was diluted 1:200. For mouse anti-GFAP, the secondary goat anti mouse conjugated with horseradish peroxidase from Sigma (Rehovot, Israel), was diluted 1:100. Colour development was obtained by reaction with diaminobenzidine and hydrogen peroxide as described in Shoham et al., Intracerebroventricular injection of streptozotocin causes neurotoxicity to myelin that contributes to spatial memory deficits in rats, Exp. Neurol. (2003) 184:1043-52. Images were obtained by bright field microscopy and quantitative assessments of appropriate markers were made by means of densitometric measurements with AnalySIS software.
Rectangular fields measuring 200 μm×100 μm were sampled from these areas in two sections containing the hippocampus from each rat. The percentage area in which nitrotyrosine immunoreactivity was seen was computed and averaged between the two sections.
Densitometic data were analyzed by univariate ANOVA followed by Duncan's post hoc test.

[2] = test system: rats injected icv with STZ (episodic memory); assay: Object recognition test after icv STZ; conditions: for Effect on the deficit in episodic memory: four weeks after icv STZ
Protocol: Male Sprague-Dawley rats (63) weighing 320-340 g, aged 4 months, were anesthetized by an intraperitoneal injection of Equithesin 0.3 ml/kg. STZ (0.5 mg) dissolved in 2 μl artificial cerebrospinal fluid (CSF) was injected into each lateral ventricle of 45 rats. The stereotaxic co-ordinates for icv injection were: 0.9 mm posterior, 1.8 mm lateral and 3.8 mm ventral from the bregma level. Control rats (18) received a bilateral injection of 2 μl artificial CSF. […] The remaining 20 rats received 1 ml/kg water. The rats were housed two per cage with free access to food and water until the behavioral, enzymatic and cytochemical measurements were completed.
Episodic memory in the object recognition test was still intact 2 but not 4 weeks after a single icv STZ injection (Table 3). Therefore, rats that were treated with ladostigil or water were tested for object and place recognition 4 weeks after icv injection of STZ or CSF. The object recognition test measured non-spatial working memory with characteristics of episodic memory that is primarily affected in senile dementia (Bartolini et al., Aniracetam restores object recognition impaired by age, scopolamine, and nucleus basalis lesions, Pharmacol. Biochem. Behav. (1996) 53:277-83). The test depended on intact cortical and hippocampal function (Winters et al., Double dissociation between the effects of peri-postrhinal cortex and hippocampal lesions on tests of object recognition and spatial memory: heterogeneity of function within the temporal lobe, J. Neuroscience (2004) 24:5901-8), while place recognition, another manifestation of spatial memory, was dependent on intact hippocampal function. The experiments were carried out as previously described in Mumby et al., Hippocampal damage and exploratory preferences in rats: memory for objects, places, and contexts, Learning Memory (2002) 9:49-57, in a box made of dark Perspex (60×60 cm and 50 cm high), covered with a dark Perspex lid. In order to increase their interest in the objects, rats were familiarized with the test arena by placing them in it for 5 min on each of 3 successive days and the object recognition test performed on the 4th day. Two identical objects were placed in the arena and the time taken by the rats to explore each object during a period of 3 min was recorded. One hour later, the objects were replaced by one that was identical to the two used in the first test and a second one that was different from them and the time taken to explore each of them was again recorded. The following day, the place recognition test was carried out with two identical objects as described above but different from those used previously. One hour later, the one of the two objects was moved to another position in the arena as described in Mumby et al., supra.
Group means of 3 measures in the object and place recognition tests, duration of exploration in first and second phases and discrimination index were submitted to one way ANOVA. Mean daily escape latencies for trial 1 and trial 2 in the MWM in each group were analyzed by repeated measures ANOVA for DAY and GROUP followed by Duncan's post hoc test where appropriate. Histological data were analyzed by univariate ANOVA followed by Duncan's post hoc test. All values represent means±SEM.

[3] = test system: rats injected icv with STZ (spatial memory); assay: Place recognition test after icv STZ
Protocol: Male Sprague-Dawley rats (63) weighing 320-340 g, aged 4 months, were anesthetized by an intraperitoneal injection of Equithesin 0.3 ml/kg. STZ (0.5 mg) dissolved in 2 μl artificial cerebrospinal fluid (CSF) was injected into each lateral ventricle of 45 rats. The stereotaxic co-ordinates for icv injection were: 0.9 mm posterior, 1.8 mm lateral and 3.8 mm ventral from the bregma level. Control rats (18) received a bilateral injection of 2 μl artificial CSF. STZ-injected rats (25) were given ladostigil (1 mg/kg of the hemitartrate salt/day) orally in a volume of (1 ml/kg) from one week before, until 1 or 8 weeks after icv STZ. The remaining 20 rats received 1 ml/kg water. The rats were housed two per cage with free access to food and water until the behavioral, enzymatic and cytochemical measurements were completed.
Episodic memory in the object recognition test was still intact 2 but not 4 weeks after a single icv STZ injection (Table 3). […] The object recognition test measured non-spatial working memory with characteristics of episodic memory that is primarily affected in senile dementia (Bartolini et al., Aniracetam restores object recognition impaired by age, scopolamine, and nucleus basalis lesions, Pharmacol. Biochem. Behav. (1996) 53:277-83). […] Two identical objects were placed in the arena and the time taken by the rats to explore each object during a period of 3 min was recorded. […]

[4] = STZ + ladostigil 1 mg/kg orally one week before and one week after icv STZ, mean of two sections per rat
[5] = STZ + ladostigil 1 mg/kg orally, n = 5
[6] = STZ (4 weeks) + ladostigil 1 mg/kg chronic, mean ± s.e.m.
[7] = icv STZ with chronic ladostigil, significantly >0, P<0.05

`C#CCN[C@@H]1CCc2ccc(OC(=O)N(C)CC)cc21` [ladostigil, R(+)-6-(N-methyl,N-ethyl-carbamoyloxy)-N′-propargyl-1-aminoindan] was tested, and the “Nitrotyrosine Immunoreactivity, Alveus (percentage area), individual rat” value [1, 4] was 4 and 9.5 and 7 and 9 and 15, the “Nitrotyrosine Immunoreactivity, Stratum oriens (percentage area), individual rat” value [1, 4] was 14.5 and 19 and 5.5 and 8.5 and 20.5 and the “Nitrotyrosine Immunoreactivity, Stratum radiatum (percentage area), individual rat” value [1, 4] was 1.5 and 22 and 3 and 7.5 and 11.5. For the same compound, the “Nitrotyrosine Immunoreactivity, Alveus (percentage area), group Mean ± SEM” value [1, 5] was 8.9 ± 1.8, the “Nitrotyrosine Immunoreactivity, Stratum oriens (percentage area), group Mean ± SEM” value [1, 5] was 13.6 ± 2.9 and the “Nitrotyrosine Immunoreactivity, Stratum radiatum (percentage area), group Mean ± SEM” value [1, 5] was 9.1 ± 3.7. For the same compound, the “Increase in nitrotyrosine immunoreactivity in astrocytes in three areas of the CA1 region of the hippocampus” value [1] was “prevented the increase”, the “Increase in nitrotyrosine immunoreactivity in astrocytes in three areas of the CA1 region of the hippocampus” value ([1]; listed as Ladostigil) was “completely prevented the increase” and the “Deficit in episodic memory two days after dose” value ([2]; 17 mg/kg single dose, two days later when ChE was no longer inhibited) was “returned two days later”. The “Discrimination index, Object” value ([2]; STZ (4 weeks) + 17 mg/kg acute) was 0.348 ± 0.112, the “Discrimination index, Object” value ([2]; STZ (4 weeks) + 17 mg/kg acute, two days later) was −0.112 ± 0.08 and the “Discrimination index, Object” value ([2]; STZ (4 weeks) + ladostigil 1 mg/kg acute) was 0.010 ± 0.08. For the same compound, the “Discrimination index, Object” value [2, 6] was 0.238 ± 0.05, the “Discrimination in object recognition test” value [2, 7] was “significant discrimination index” and the “Effect on the deficit in episodic memory” value ([2]; single dose 17 mg/kg) was “the memory deficit was abolished”. The “Effect on the deficit in episodic memory” value ([2]; single dose of 1 mg/kg) was “no effect”, the “Discrimination index, Place” value [3, 6] was 0.211 ± 0.07 and the “Discrimination in place recognition test” value [3, 7] was “significant discrimination index”.
